Columns and labels:
[1] = test system: carrageenan-induced paw edema; experiment: carrageenan-induced rat paw edema, in vivo anti-inflammatory activity; conditions: diclofenac sodium = 1
[2] = test system: albino rats; experiment: acute toxicity studies; assay type: in vivo, rat; conditions: oral

Row | SMILES | Effectiveness [1] | toxicity in laboratory tests [2]
1 | Clc1ccc(-c2nocc2-c2ccccc2)cc1 [5b, 3-(4-Chloro-phenyl)-4-phenyl-isoxazole] | 0.83 | low toxicity
2 | Oc1ccc(-c2nocc2-c2ccccc2)cc1 [5c, 4-(4-Phenyl-isoxazol-3-yl)-phenol] | 0.81 | low toxicity
3 | Oc1cccc(-c2nocc2-c2ccccc2)c1 [5d, 3-(4-Phenyl-isoxazol-3-yl)-phenol] | 0.71 | low toxicity
4 | O=[N+]([O-])c1cccc(-c2nocc2-c2ccccc2)c1 [5e, 3-(3-Nitro-phenyl)-4-phenyl-isoxazole] | 0.16 | –
5 | O=[N+]([O-])c1ccc(-c2nocc2-c2ccccc2)cc1 [5f, 3-(4-Nitro-phenyl)-4-phenyl-isoxazole] | 0.66 | –
6 | Brc1cccc(-c2nocc2-c2ccccc2)c1 [5g, 3-(3-Bromo-phenyl)-4-phenyl-isoxazole] | 0.22 | –
7 | Brc1ccc(-c2nocc2-c2ccccc2)cc1 [5h, 3-(4-Bromo-phenyl)-4-phenyl-isoxazole] | 0.02 | –
8 | Clc1cccc(-c2nocc2-c2ccccc2)c1 [5i, 3-(3-Chloro-phenyl)-4-phenyl-isoxazole] | 0.55 | –
9 | Fc1ccc(-c2nocc2-c2ccccc2)cc1 [5j, 3-(4-Fluoro-phenyl)-4-phenyl-isoxazole] | 0.80 | –
10 | COc1ccccc1-c1nocc1-c1ccccc1 [5k, 3-(2-Methoxy-phenyl)-4-phenyl-isoxazole] | 0.09 | –
11 | COc1cccc(-c2nocc2-c2ccccc2)c1 [5l, 3-(3-Methoxy-phenyl)-4-phenyl-isoxazole] | 0.57 | –
12 | COc1ccc(-c2nocc2-c2ccccc2)cc1 [5m, 3-(4-Methoxy-phenyl)-4-phenyl-isoxazole] | 0.63 | –
13 | O=C(O)Cc1ccccc1Nc1c(Cl)cccc1Cl [Diclofenac sodium, reference compound] | 1 | –
